# “And” between values parts separate entries of the source, which are not always exact repeats. Identical values can stand only once.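 Exposure lasted 48 hours, with cells grown in 96-well plates and compounds tested at five concentrations. GI50 is the concentration that inhibits growth by half. Definition used: TGI = concentration required for complete inhibition of growth.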
# How the values were obtained:
# Experiment in all cases: growth of human tumour cells (NCI), 48 h
# [1] = tested on: A498 renal
# [2] = tested on: CCRF-CEM leukemia
# [3] = tested on: HCC-2998 colon
# [4] = tested on: HCT-15 colon
# [5] = tested on: HL-60(TB) leukemia
# [6] = tested on: HS 578T breast
# [7] = tested on: IGROV1 ovarian
# [8] = tested on: OVCAR-3 ovarian
# [9] = tested on: PC-3 prostate
# [10] = tested on: UO-31 renal
Compound,GI50 [1],TGI [1],GI50 [2],TGI [2],GI50 [3],TGI [3],GI50 [4],TGI [4],GI50 [5],TGI [5],GI50 [6],TGI [6],GI50 [7],TGI [7],GI50 [8],TGI [8],GI50 [9],TGI [9],GI50 [10],TGI [10]
CNC(=O)Oc1cc(C)c(/C=C/c2cncc(C(=O)NC)c2)c(C)c1,> 25 µM,> 25 µM,24.8 µM,> 25 µM,> 25 µM,> 25 µM,> 25 µM,> 25 µM,> 21.2 µM,> 25 µM,12.9 µM,> 25 µM,> 23.2 µM,> 25 µM,> 25 µM,> 25 µM,> 25 µM,> 25 µM,13.3 µM,> 25 µM
C=CN(C)S(C)(=O)=O,> 100 µM,> 100 µM,> 100 µM,> 100 µM,> 100 µM,> 100 µM,> 100 µM,> 100 µM,> 100 µM,> 100 µM,> 100 µM,> 100 µM,> 100 µM,> 100 µM,> 100 µM,> 100 µM,> 100 µM,> 100 µM,> 100 µM,> 100 µM
COc1cc(O)c2c(c1)C(=O)c1cc3c(c(O)c1C2=O)C(OC1OC(C)C(O)C(O)C1OC)C(OC)C(C)(O)C3=O (centres undefined),1.58 µM,3.13 µM and 5.31 µM,3.07 µM and 13.4 µM,> 100 µM and 74.1 µM,2.22 µM,5.14 µM and 12.4 µM,2.65 µM,12.2 µM and 7.35 µM,3.44 µM and 6.26 µM,17.6 µM and 24.3 µM,3.34 µM,19.5 µM,,7.16 µM,1.38 µM,5.83 µM and 2.04 µM,2.57 µM,12.3 µM,1.87 µM,12.2 µM and 7.13 µM
C[C@H]1[C@H]2[C@H]3CC[C@@H]4[C@@]5(C)C/C(=C/c6cccnc6)C(=O)C(C)(C)[C@@H]5CC[C@@]4(C)[C@]3(C)CC[C@]23CO[C@]1(C)[C@@H](C(=O)/C=C\c1cccnc1)C3,0.661 µM,1.54 µM,0.44 µM,> 50 µM,0.868 µM,1.67 µM,0.982 µM,2.56 µM,0.794 µM,2.53 µM,1.44 µM,7.4 µM,0.975 µM,2.2 µM,0.886 µM,1.91 µM,0.498 µM,3.37 µM,0.675 µM,1.37 µM
CCc1ccc2c(c1)N(CCO)C1=C(C(=O)OC1)C2c1cccc(Cl)c1 (centres undefined),0.36 µM,11.4 µM,0.739 µM,32 µM,1.35 µM,9.25 µM,0.605 µM,17.9 µM,0.482 µM,8.82 µM,1.37 µM,32.2 µM,3.75 µM,37.6 µM,0.364 µM,1.68 µM,0.687 µM,23.4 µM,2.52 µM,20.9 µM
COc1ccc(-c2nc(N3CCN(C(=O)C4CCCCC4)CC3)c3c4c(sc3n2)CCCC4)cc1,14.2 µM,81.3 µM,> 100 µM,> 100 µM,> 100 µM,> 100 µM,> 100 µM,> 100 µM,70.5 µM,> 100 µM,24.7 µM,> 100 µM,41.2 µM,> 100 µM,> 100 µM,> 100 µM,26.1 µM,> 100 µM,95.4 µM,> 100 µM
Nc1c(C(=O)c2ccc(CCCN3CCOCC3)cc2)cnn1-c1ccc(F)cc1,> 14.5 µM,> 25 µM,> 25 µM,> 25 µM,> 25 µM,> 25 µM,> 25 µM,> 25 µM,> 25 µM,> 25 µM,> 25 µM,> 25 µM,> 25 µM,> 25 µM,24.3 µM,> 25 µM,> 25 µM,> 25 µM,> 25 µM,> 25 µM
CN(C)CCCNC(=O)c1cncnc1Nc1ccc(OCc2cccc(F)c2)c(Cl)c1,1.56 µM,2.93 µM,1.82 µM,3.94 µM,1.55 µM,3.01 µM,1.38 µM,2.75 µM,1.67 µM,3.52 µM,1.56 µM,3.3 µM,1.78 µM,3.33 µM,1.49 µM,2.88 µM,1.58 µM,3.11 µM,1.46 µM,2.77 µM
CCS(=O)(=O)Nc1cccc(Nc2c3cccc(C)c3nc3c(C)cccc23)c1OC,0.392 µM,6.01 µM,0.264 µM,> 100 µM,2.99 µM,> 71.1 µM,1.31 µM,> 100 µM,0.25 µM,,5.69 µM,44.8 µM,1.8 µM,> 70.2 µM,4.59 µM,25 µM,1.67 µM,19.2 µM,0.393 µM,26 µM
CN(C)CCOC(c1ccccc1)c1ccccc1,40.9 µM,58.4 µM,,> 100 µM,,> 100 µM,36.7 µM,51.5 µM and > 100 µM,,> 100 µM,32.2 µM,51.3 µM and > 100 µM,29.3 µM,46.3 µM and > 100 µM,36 µM,51.1 µM and > 100 µM,,44.4 µM and > 100 µM,32.6 µM,47.4 µM and > 100 µM
CCCCCCc1nc2nc(Cl)c(Cl)nc2[nH]1,3.81 µM,> 100 µM,5.8 µM,> 100 µM,> 100 µM,> 100 µM,5.06 µM,> 100 µM,6.84 µM,> 100 µM,> 100 µM,> 100 µM,18.9 µM,> 100 µM,4.01 µM,> 100 µM,4.68 µM,> 100 µM,4.88 µM,> 100 µM
O=c1c2ccccc2c2ccccc2c(=O)n1Cc1ccc2c(c1)OCO2,,> 100 µM,,93.2 µM,,> 100 µM,,> 100 µM,,52 µM,,> 100 µM,,> 100 µM,,> 100 µM,,> 100 µM,,> 100 µM

# Reference: PubChem BioAssay (NCI)
